What was measured:
Format in all cases: physicochemical
HSA [1] = target: T1, HSA (Homo sapiens, UniProt P02768); assay: Differential scanning calorimetry (DSC) of HSA solutions: thermal stabilization effect; conditions: 100-μM HSA, 500-μM agent
Method: Each of various medical agents was added to 100-μM HSA ( 1/15 mM phosphate buffer, pH 7.4) and then the following medical agents under test were prepared:
The stabilization effect was evaluated in terms of a thermodynamic viewpoint by calculating a thermal transition temperature (Tm) and a change ΔHcal in enthalpy of transition from a differential scanning calorimetry (DSC) measurement on those medical agents under test (1) to (4). If the thermal transition temperature (Tm) increases, from the thermodynamic viewpoint, it means an increase in stability of the medical agents under test. In addition, if the change ΔHcal in enthalpy of transition increases, it means an increase in stability of the medical agents transition under test.
Those values were analyzed by a DSC thermogram of the HSA solution. Differential scanning calorimetry (DSC method)
For the DSC, measurement was made using the MC-2 differential scanning calorimeter manufactured by MicroCal Co., Ltd. The measuring conditions are shown below.
Albumin content: 100 μM Solvent: 1/15 M phosphate buffer (pH 7.4)
Reversibility of thermal denaturation was confirmed by cooling the albumin solution after first measurement and then heating the albumin solution again. […]

HSA [2] = target: T1, HSA; assay: Carbonyl content in HSA after oxidation with AAPH; conditions: oxidation with excess AAPH; compared with medical agent under test without addition
Method: An excess amount of an oxidizing agent, 2,2′-azobis-(2-amidinopropane) dihydrochloride (AAPH) was added to HSA to oxidize the HSA. After the oxidation for a predetermined time, the carbonyl content in HSA was determined.

HSA [3] = target: T1, HSA; assay: Aggregate-inhibition effect under heat with medium-chain fatty acids other than sodium caprylate (electrophoresis); conditions: 5-fold concentration (120 μM) of fatty acid added to 24-μM HSA phosphate buffer (67 mM, pH 7.4)
Method: The measurement samples used were such that 5-fold concentrations (120 μM) of the respective fatty acids were each added to a 24-μM HSA phosphate buffer (67 mM, pH 7.4).

T1 sequence (P02768 25-609): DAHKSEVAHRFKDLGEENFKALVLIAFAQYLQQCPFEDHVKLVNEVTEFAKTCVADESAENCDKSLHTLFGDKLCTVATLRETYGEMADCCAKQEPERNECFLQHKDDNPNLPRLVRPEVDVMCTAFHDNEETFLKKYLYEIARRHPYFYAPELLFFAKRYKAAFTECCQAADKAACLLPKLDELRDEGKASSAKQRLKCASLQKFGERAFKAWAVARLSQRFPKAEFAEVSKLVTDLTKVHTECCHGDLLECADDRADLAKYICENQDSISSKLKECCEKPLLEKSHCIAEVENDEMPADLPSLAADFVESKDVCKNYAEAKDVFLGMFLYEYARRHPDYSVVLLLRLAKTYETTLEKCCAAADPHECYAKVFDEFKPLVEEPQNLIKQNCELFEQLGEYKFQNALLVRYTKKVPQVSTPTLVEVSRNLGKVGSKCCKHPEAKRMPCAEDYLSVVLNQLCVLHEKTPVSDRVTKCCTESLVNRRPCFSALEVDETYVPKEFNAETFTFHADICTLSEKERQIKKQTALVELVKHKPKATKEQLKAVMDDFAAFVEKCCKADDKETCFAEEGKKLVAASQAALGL

| Structure (SMILES) | change in Tm compared with HSA solution without added agent (in words) (HSA [1]) | change in ΔHcal compared with HSA solution without added agent (in words) (HSA [1]) | carbonyl content in HSA (degree of oxidation) (HSA [2]) | aggregate-inhibition effect under heat (HSA [3]) |
| --- | --- | --- | --- | --- |
| CSCC[C@H](NC(C)=O)C(=O)O [N-acetyl methionine] | slight increase in Tm | increase in change ΔHcal in enthalpy transition | significant decrease in carbonyl content |  |
| CCCCCC(=O)O [caproic acid] |  |  |  | slightly observed |
| CCCCCCC(=O)O [enanthic acid] |  |  |  | slightly observed |

Reference: patent US7351800B2, “Stabilized albumin preparations” (Nipro Corporation, priority 2002, dated 2008)
